Reference: patent publication US12161669B2, “Compositions and methods for cell targeting therapies” (UMC UTRECHT HOLDING B.V., priority 2017, dated 2024)

Experiments:
CD277 and F-actin = assay: Colocalization of CD277 and F-actin in HEK 293 cells; assay type: cell-based; conditions: single agent vs medium
Method: To determine colocalization between BTN3 molecules and the actin cytoskeleton, HEK 293 cells were grown onto poly-L-lysin-coated coverslips and pretreated with either calpeptin (2 μg/ml) or C3 transferase (20 μg/ml) prior to treating samples with pamidronate Cells were fixed, permeabilized and BTN3 and F-actin were stained with DyLight 680-conjugated BTN3 antibody (clone BT3.1, Novus Biologicals) and Fluorescein-coupled phalloidin (Sigma), respectively. The correlation coefficient between BTN3 and F-actin signal was determined as a measure of colocalization using Volocity software.

CD277 = assay: dSTORM super-resolution imaging of CD277 clusters on HEK293FT cells; assay type: cell-based; conditions: 100 uM pamidronate vs medium, DBSCAN
Method: HEK293FT cells were plated in eight-well Lab-Tek chambers to adhere and treated with 100 uM pamidronate overnight. For super-resolution imaging, cells were labeled with AF647-CD277 at RT. After labeling, cells were washed with PBS and fixed with 4% PFA and 0.2% gluteraldehyde for 1-2 h. Prior to super-resolution imaging, 200 μL of fresh SRB (Super-resolution buffer: 50 mM Tris, 10 mM NaCl, 10% glucose, 168.8 U/mL glucose oxidase, 1404 U/mL catalase, 10 mM cysteamine hydrochloride, pH 8.0) was added to the well. dSTORM imaging was performed using an inverted microscope (IX71; Olympus America) equipped with an oil-immersion objective 1.45-NA total internal reflection fluorescence objective (U-APO 150×; Olympus America). […]
dSTORM images were analyzed and reconstructed with custom-built MATLAB functions as described previously (Smith et al 2010, Nat Methods: Huang et al 2011, Biomed Opt Express). […]
Finally, in order to understand whether the enhanced recruitment of low affinity CTE-C13 TCR in the synapse was a result of changes in CD277 clustering due to the PAM treatment, direct stochastic optical reconstruction microscopy (dSTORM), a localization-based super-resolution imaging technique that provides ˜20 nm resolution was performed. […] To quantify the images, a density-based spatial clustering application (DBSCAN) was utilized. […]

For `NCCC(O)(P(=O)(O)O)P(=O)(O)O` [pamidronate], the “colocalization between CD277 and F-actin” value (CD277 and F-actin) was “markedly reduced” and the “CD277 localization cluster size, density or number” value (CD277) was “did not dramatically change”.
